Reference: US7041169B2, “Methods of generating and screening for high free energy forms in capillaries” (S.S.C.I., Inc., priority 2000, dated 2006)
≈ marks a conversion by molar mass, not a printed value. Entries after “also recorded” stand apart in the source; their conditions may differ.

Key:
Type in all cases: physicochemical
[1] = Solidification of WAY from supersaturated ethanol solution in 95 capillary tubes (Example 5)
Protocol: A supersaturated solution of WAY in ethanol was prepared, having a supersaturation ratio of 2. The WAY solution was introduced into 95 capillary tubes. The tubes were left open at both ends and allowed to evaporate to the atmosphere. After about 25 minutes, sixty-two capillary tubes contained crystals. […] After about one hour, four additional capillary tubes contained white crystals, nine additional capillary tubes contained yellow crystals, and one additional capillary tube contained a mixture of white and yellow crystals.

[2] = Solidification of WAY from ethanol and aqueous ethanol in capillary tubes at different temperatures (Example 6, Table 1)
Protocol: For this example, solutions of the WAY compound were prepared at a supersaturation ratio of 2 in ethanol and in 10% aqueous ethanol. Each of these WAY solutions was introduced into twenty capillary tubes having a stated inner diameter of 0.5–0.6 mm and which had been washed by soaking in distilled water for about 10 minutes, rinsing with ethanol, and drying for at least an hour at 65 degrees C. The capillary tubes were maintained at room temperature and pressure (about 23 degrees C. and at about 45% relative humidity) and were observed periodically.
Solidification of the WAY compound from ethanol and aqueous ethanol solutions was also done at different temperatures (reported below in degrees Celsius). Table 1 summarizes the results of seven sets of twenty capillary tubes under set different sets of conditions.

[3] = Solubility of ROY in ethanol; conditions: 25 °C, organic solvent or mixture, 25 degrees C
Protocol: For this example, a solution of ROY in ethanol was prepared. A supersaturated solution of 160.3 mg of ROY in 2 mL of ethanol was prepared, having a supersaturation ratio of 6.7.

[4] = Solubility of ROY in water

Row | SMILES | solid forms found in capillary tubes ([1]; after about 25 minutes, 95 tubes, sixty-two with crystals) | persistence of high free energy yellow crystals in capillary tubes ([1]; overnight (about thirteen hours and forty minutes), room temperature) | Result (solid forms in 20 capillary tubes) ([2]; Solvent Aqueous ethanol, Temp 38 degrees Celsius, Time 0:50, tubes with mixed yellow and white crystals) | Result (solid forms in 20 capillary tubes) ([2]; Solvent Aqueous ethanol, Temp 38 degrees Celsius, Time 0:50, tubes with no solids formed) | Result (solid forms in 20 capillary tubes) ([2]; Solvent Aqueous ethanol, Temp 38 degrees Celsius, Time 1:13, tubes with mixed yellow and white crystals) | Result (solid forms in 20 capillary tubes) ([2]; Solvent Aqueous ethanol, Temp 38 degrees Celsius, Time 1:13, tubes with no solids formed) | Result (solid forms in 20 capillary tubes) ([2]; Solvent Aqueous ethanol, Temp 38 degrees Celsius, Time 1:42, tubes with mixed yellow and white crystals) | Result (solid forms in 20 capillary tubes) ([2]; Solvent Aqueous ethanol, Temp 38 degrees Celsius, Time 1:42, tubes with no solids formed) | Result (solid forms in 20 capillary tubes) ([2]; Solvent Aqueous ethanol, Temp −2 degrees Celsius, Time 4:35, tubes with white crystals) | Result (solid forms in 20 capillary tubes) ([2]; Solvent Aqueous ethanol, Temp −2 degrees Celsius, Time 4:35, tubes with yellow crystals) | Result (solid forms in 20 capillary tubes) ([2]; Solvent Ethanol, Temp 38 degrees Celsius, Time 0:50, tubes with mixed white and yellow crystals) | Result (solid forms in 20 capillary tubes) ([2]; Solvent Ethanol, Temp 38 degrees Celsius, Time 0:50, tubes with no solids formed) | Result (solid forms in 20 capillary tubes) ([2]; Solvent Ethanol, Temp 38 degrees Celsius, Time 1:43, tubes with mixed yellow and white crystals) | Result (solid forms in 20 capillary tubes) ([2]; Solvent Ethanol, Temp 38 degrees Celsius, Time 1:43, tubes with no solids formed) | Result (solid forms in 20 capillary tubes) ([2]; Solvent Ethanol, Temp −2 degrees Celsius, Time 4, tubes with white and yellow crystals) | Result (solid forms in 20 capillary tubes) ([2]; Solvent Ethanol, Temp −2 degrees Celsius, Time 4, tubes with white crystals) | solubility [3] [mg/mL] | solubility in water [4]
1 | CC(=O)Nc1ccc(C)cc1[N+](=O)[O-] [WAY, 4-methyl-2-nitro-acetanilide] | forty contained white crystals; also recorded: twenty-two contained yellow crystals | nineteen of those tubes had transformed to white crystals; also recorded: six still contained yellow crystals | 2/20: mixture of yellow | 18/20: no solids formed | 5/20: mixture of yellow | 15/20: no solids formed | 19/20: mixture of yellow | 1/20: no solids formed | 1/20: white crystals | 19/20: yellow crystals | 16/20: mixture of white | 4/20: no solids formed | 17/20: mixture of yellow | 3/20: no solids formed | 2/20: white and yellow | 10/20: white crystals | – | –
2 | Cc1cc(C#N)c(Nc2ccccc2[N+](=O)[O-])s1 [ROY, 5-methyl-2-[(2-nitrophenyl)amino]-3-thiophenecarbonitrile] | – | – | – | – | – | – | – | – | – | – | – | – | – | – | – | – | ~12 (≈ 46.3 mM) | generally insoluble in water
